Experimental data: US20200031811A1, “SUBSTITUTED MONO- AND POLYAZANAPHTHALENE DERIVATIVES AND THEIR USE” (Basilea Pharmaceutica International AG, priority 2015, published 2020)

How the values were obtained:
[1] = test system: human pancreatic cancer cell line MiaPaCa2 (ATCC CRL-1420); experiment: Cell growth assay (CellTiterGlo, 72 hours); format: cell-based; settings: for inhibition at 100 µM: MIA PaCa-2, at 100 μM; for inhibition at 100 µM / inhibition at 50 µM: read-out: Inhibition of MiaPaCa growth at indicated concentration; for inhibition at 50 µM: MIA PaCa-2, at 50 μM; for IC50: MIA PaCa-2, MiaPaCa2 cells, 72 hours, read-out: IC50 MiaPaCa
Method: The inhibition of cell growth by the compounds was tested by exposing the human pancreatic cancer cell line MiaPaCa2 (ATCC CRL-1420) to the compounds. The assay was performed in 384 well clear bottom white microtiter plates (Greiner #781098). Each well was seeded with 10^3 cells in 20 μl of Dulbecco's modified Eagle's medium (Sigma D6796) supplied with 10% fetal calf scrum (Sigma F7524), 2.5% horse serum (Sigma H0146), 1% Penicillin-Streptomycin (Sigma P0781), 1% MEM nonessential amino acid solution 100× (Sigma M71459) and 1% 200 mM L-Glutamine (Sigma G7513) culture medium. After overnight incubation at 37° C. in 5% CO2 the compounds were added in the following concentrations: 100, 50, 20, 10, 5, 2, 1, 0.5, 0.2 and 0.1 μM. Each compound concentration was tested in quadruplicate. The incubation was then continued for 72 hours. After 72 hours the growth of the cells was assessed by the addition of the CellTiterGlo reagent (Promega G9242) as instructed by the provider. The luminescent signal was recorded on a SpectraMax M2 microplate reader. The signal obtained in wells containing cells cultivated in the absence of compound was set to 100% growth after subtracting the signal obtained in medium only wells. The % growth in each well was calculated by subtracting the medium only value and dividing through the 100% growth value. The IC50 for cell growth, the concentration of compound at which cell growth was reduced to 50%, was calculated with the GraFit6 software (Erythacus software).

MNK1 = target: T1, MNK1 (Homo sapiens, UniProt Q9BUB5); experiment: MNK inhibition assay (Z-Lyte kinase assay, Ser/Thr 7 peptide); format: biochemical; settings: for IC50: recombinant GST-MNK1, 3 hours at 31° C.; for inhibition at 10 µM: read-out: Inhibition of MNK1 activity at indicated concentration
T1 construct: purchased Life Technologies or Carna Biosciences PV6023 or 02-145; host or cells: baculovirus infected insect cells
T1 sequence (Q9BUB5 whole entry): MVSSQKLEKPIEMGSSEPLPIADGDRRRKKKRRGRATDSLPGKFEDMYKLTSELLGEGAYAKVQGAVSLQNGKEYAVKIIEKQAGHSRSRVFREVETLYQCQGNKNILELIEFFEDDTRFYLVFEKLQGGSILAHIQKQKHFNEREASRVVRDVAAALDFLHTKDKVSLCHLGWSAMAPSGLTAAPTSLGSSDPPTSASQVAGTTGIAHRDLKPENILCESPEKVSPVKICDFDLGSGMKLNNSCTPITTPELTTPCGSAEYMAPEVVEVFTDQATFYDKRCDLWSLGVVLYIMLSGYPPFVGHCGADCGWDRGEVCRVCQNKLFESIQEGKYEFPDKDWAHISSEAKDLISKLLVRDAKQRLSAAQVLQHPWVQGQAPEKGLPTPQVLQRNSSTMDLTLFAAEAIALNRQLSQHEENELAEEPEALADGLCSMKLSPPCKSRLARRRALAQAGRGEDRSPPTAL
Excerpt: For the measurement of the activity of the MNK1 kinase the Z-Lyte kinase assay system was used. The kinase activity of MNK1 can be quantified with the Z-Lyte kinase assay kit Ser/Thr 7 peptide (Life Technologies PV3180). The kit was utilized according to the instructions of the provider. A recombinant GST-MNK1 fusion protein produced in and purified from baculovirus infected insect cells was used as enzyme source (GST-MNK1 Life Technologies PV6023 or Carna Biosciences 02-145). It was verified that both sources of the MNK1 enzyme gave similar IC50 values with several compounds. The MNK1 enzyme assay was performed in 384 well round bottom black microtiter plates (Corning 3676). The kinase reaction was performed for 3 hours at 31° C. As instructed by the provider of the kit the amount of enzyme was chosen such that ˜30% of the substrate peptide was phosphorylated in control wells containing buffer only. The MNK1 inhibiting activity of compounds was tested by adding the compounds to the kinase reaction at a concentration of 10000, 5000, 2000, 1000, 500, 200, 100, 50 nM. Compounds with strong MNK1 inhibition were tested at 20, 10, 5, 2, 1 and 0.5 nM in addition. Each compound concentration was tested at least in duplicate. The % phosphorylation of the substrate peptide at each compound concentration was calculated as described in the assay manual. The fluorescent signals were recordes on Biotek Cytation 3 microplate reader. The IC50, the concentration that reduced substrate phosphorylation by 50% if compared to buffer only wells, was calculated with the Grafit 6 software (Erythacus software).

SMILES	inhibition at 100 µM [1] [%]	IC50 (MNK1) [nM]	inhibition at 50 µM [1] [%]	IC50 [1] [nM]	inhibition at 10 µM (MNK1) [%]
Oc1ccc(-c2cncc3ccc(CNC4CCNCC4)cc23)cc1 [Example 40]	48	263	–	–	–
Oc1ccc(-c2cncc3ccc(CNC4CCNC4)cc23)cc1 (centres unmarked) [Example 41]	67	254	–	–	–
NC1CCC(NCc2ccc3cncc(-c4ccc(O)cc4)c3c2)C1 (centres unmarked) [Example 42, 4-[6-[[(3-Aminocyclopentyl)amino]methyl]-4-isoquinolyl]phenol]	–	496	44	–	–
CN(C)CCCNCc1ccc2cncc(-c3ccc(O)cc3)c2c1 [Example 43, 4-[6-[[3-(Dimethylamino)propylamino]methyl]-4-isoquinolyl]phenol]	–	219	–	32200	–
NCCCOCc1ccc2cncc(-c3ccc(O)cc3)c2c1 [Example 44, 4-[6-(3-Aminopropoxymethyl)-4-isoquinolyl]phenol]	–	61	–	20600	–
CN(C)C1CCN(Cc2ccc3cncc(-c4cc5ccccc5o4)c3c2)CC1 [Example 46, 1-[[4-(Benzofuran-2-yl)-6-isoquinolyl]methyl]-N,N-dimethyl-piperidin-4-amine]	–	618	–	8210	–
CN1CCN(Cc2ccc3cncc(-c4cc5ccccc5o4)c3c2)CC1 [Example 47]	–	1120	–	10900	–
Nc1cccc(NCc2ccc3cncc(-c4cc5ccccc5o4)c3c2)c1 [Example 48]	–	1150	–	25000	–
Nc1ccc(NCc2ccc3cncc(-c4cc5ccccc5o4)c3c2)cc1 [Example 50]	–	384	–	5590	–
NCc1ccccc1NCc1ccc2cncc(-c3cc4ccccc4o3)c2c1 [Example 51, 2-(Aminomethyl)-N-[[4-(benzofuran-2-yl)-6-isoquinolyl]methyl]aniline]	–	4220	–	6340	–
NCc1ccc(NCc2ccc3cncc(-c4cc5ccccc5o4)c3c2)cc1 [Example 52]	–	163	–	14100	–
NCc1cccc(NCc2ccc3cncc(-c4cc5ccccc5o4)c3c2)c1 [Example 53]	–	580	–	18600	–
Nc1cc[n+](Cc2ccc3cncc(-c4cc5ccccc5o4)c3c2)c2ccccc12 [Example 54, 1-[[4-(Benzofuran-2-yl)-6-isoquinolyl]methyl]quinolin-1-ium-4-amine]	–	15	–	2850	–
Nc1cc[n+](Cc2ccc3cncc(-c4cc5ccccc5o4)c3c2)cc1 [Example 55]	–	14	–	1830	–
Nc1ccc[n+](Cc2ccc3cncc(-c4cc5ccccc5o4)c3c2)c1 [Example 56]	85	143	–	–	–
Cc1c[n+](Cc2ccc3cncc(-c4cc5ccccc5o4)c3c2)ccc1N [Example 57]	–	7.9	–	3370	–
Nc1cc[n+](Cc2ccc3cncc(-c4cc5ccccc5o4)c3c2)cc1C(F)(F)F [Example 58]	–	50	–	13600	–
Nc1cc[n+](Cc2ccc3cncc(-c4cc5ccccc5o4)c3c2)cc1O [Example 59]	–	90	–	47000	–
c1ccc2oc(-c3cncc4ccc(CNc5ccncc5)cc34)cc2c1 [Example 61]	–	3	–	5250	–
FC(F)(F)c1cc(NCc2ccc3cncc(-c4cc5ccccc5o4)c3c2)ccn1 [Example 64]	–	–	–	14800	41
CN(Cc1ccc2cncc(-c3cc4ccccc4o3)c2c1)c1ccncc1 [Example 67]	–	57	–	5580	–
CN(C)c1cc(NCc2ccc3cncc(-c4cc5ccccc5o4)c3c2)ccn1 [Example 68]	–	45	–	6190	–
Cc1cnccc1NCc1ccc2cncc(-c3cc4ccccc4o3)c2c1 [Example 69]	–	17	–	7000	–

SMILES	inhibition at 100 µM [1] [%]	IC50 (MNK1) [nM]	inhibition at 50 µM [1] [%]	IC50 [1] [nM]	inhibition at 10 µM (MNK1) [%]
Fc1cnccc1NCc1ccc2cncc(-c3cc4ccccc4o3)c2c1 [Example 70]	–	32	–	12200	–
Clc1cnccc1NCc1ccc2cncc(-c3cc4ccccc4o3)c2c1 [Example 71]	–	128	–	10300	–
COc1cnccc1NCc1ccc2cncc(-c3cc4ccccc4o3)c2c1 [Example 72]	–	12	–	5080	–
Oc1cnccc1NCc1ccc2cncc(-c3cc4ccccc4o3)c2c1 [Example 73]	–	5	–	15000	–
O=c1cc(NCc2ccc3cncc(-c4cc5ccccc5o4)c3c2)cc[nH]1 [Example 74]	–	5.3	–	19200	–
O=[N+]([O-])c1cnccc1NCc1ccc2cncc(-c3cc4ccccc4o3)c2c1 [Example 75, N-[[4-(Benzofuran-2-yl)-6-isoquinolyl]methyl]-3-nitro-pyridin-4-amine]	–	2130	–	18000	–
Nc1cnccc1NCc1ccc2cncc(-c3cc4ccccc4o3)c2c1 [Example 76, N4-[[4-(Benzofuran-2-yl)-6-isoquinolyl]methyl]pyridine-3,4-diamine]	–	5.9	–	4750	–
FC(F)(F)c1cnccc1NCc1ccc2cncc(-c3cc4ccccc4o3)c2c1 [Example 77]	–	1130	–	10000	–
c1ccc2oc(-c3cncc4ccc(OC5CCNCC5)cc34)cc2c1 [Example 78, 4-(Benzofuran-2-yl)-6-(4-piperidyloxy)isoquinoline]	–	208	–	3460	–
N[C@H]1CC[C@H](Oc2ccc3cncc(-c4cc5ccccc5o4)c3c2)CC1 [Example 79, 4-[[4-(Benzofuran-2-yl)-6-isoquinolyl]oxy]cyclohexanamine]	–	401	–	4720	–
N[C@H]1CC[C@@H](Oc2ccc3cncc(-c4cc5ccccc5o4)c3c2)CC1 [Example 80]	–	675	–	3550	–
c1ccc(-c2cnnc3ccc(CN4CCNCC4)cc23)cc1 [Example 83, 4-Phenyl-6-(piperazin-1-ylmethyl)cinnoline]	31	–	–	–	54
NC1CCN(Cc2ccc3nncc(-c4ccccc4)c3c2)CC1 [Example 84]	33	3730	–	–	–
Oc1ccc(-c2cnnc3ccc(CN4CCNCC4)cc23)cc1 [Example 85]	33	318	–	–	–
NC1CCN(Cc2ccc3nncc(-c4ccc(O)cc4)c3c2)CC1 [Example 86]	50	174	–	–	–
N[C@H]1CC[C@H](Nc2ccc3c(=O)[nH]cc(-c4cc5ccccc5o4)c3c2)CC1 [Example 87, 6-[(4-Aminocyclohexyl)amino]-4-(benzofuran-2-yl)-2H-isoquinolin-1-one]	–	1980	–	4470	–
Nc1ncc(-c2ccccc2)c2cc(CN3CCNCC3)ccc12 [Example 91, 4-Phenyl-6-(piperazin-1-ylmethyl)isoquinolin-1-amine]	–	476	–	11300	–
Nc1ncc(-c2ccccc2)c2cc(CN3CCC(N)CC3)ccc12 [Example 92]	–	577	–	7200	–
Nc1ncc(-c2ccc(O)cc2)c2cc(CN3CCNCC3)ccc12 [Example 93]	–	197	27	–	–
Nc1ncc(-c2ccc(O)cc2)c2cc(CN3CCC(N)CC3)ccc12 [Example 94]	–	221	27	–	–
CN(C)CCOc1ccc2cncc(-c3cc4ccccc4o3)c2c1 [Example 95, 2-[[4-(Benzofuran-2-yl)-6-isoquinolyl]oxy]-N,N-dimethyl-ethanamine]	–	1730	–	8380	–
Cn1nccc1Oc1ccc2cncc(-c3cc4ccccc4o3)c2c1 [Example 96]	–	3990	–	6140	–
Cn1nccc1OCc1ccc2cncc(-c3cc4ccccc4o3)c2c1 [Example 97, 4-(Benzofuran-2-yl)-6-[(2-methylpyrazol-3-yl)oxymethyl]isoquinoline]	–	397	–	10800	–
